# In PMC6318274, “Lattice engineering enables definition of molecular features allowing for potent small-molecule inhibition of HIV-1 entry” (Nature Communications, 2019):
# Experiments:
# HIV-1 strain NL4-3 = assay: Entry inhibition of laboratory-adapted HIV-1 strain NL4-3; assay type: cell-based; conditions: Human immunodeficiency virus 1, NL43; NL4-3
# SVA.MLV = assay: Neutralization assay, control virus SVA.MLV; assay type: cell-based; conditions: clade NA
# Procedure: Neutralization was measured using single-round-of-infection HIV-1 Env-pseudoviruses and TZM-bl target cells (ARP Cat No. #8129)[44],[45]. Compounds were prepared at 400 μM with 4% DMSO (dimethyl sulfoxide) in PBS (phosphate-buffered saline) and diluted 20 times as the starting concentration for serial dilution in the neutralization assays. Pseudoviruses of ten strains from HIV-1 clades A, B, and C were incubated with serial dilutions of drug compounds, then added to TZM-bl target cells which have a luciferase reporter gene. After incubation at 37 °C for 2 days, infection of target cells was measured by luciferase activity. Neutralization curves were fit by nonlinear regression using a five-parameter hill slope equation[45].
compound,measurement,setting,value
COc1cnc(-c2csc(C(=O)NCCO)n2)c2[nH]cc(C(=O)C(=O)N3CCC(=C(C#N)c4ccccc4)CC3)c12 [BMS-818251],EC50,HIV-1 strain NL4-3,0.019 ± 0.003 nM
same,IC50,SVA.MLV,> 20000 nM
